# Experimental data from the METLIN SMRT retention time set (Domingo-Almenara et al. 2019).
# Assay: gradient 5% acetonitrile 3 min, to 50% in 2 min, to 85% in 15 min, held 3 min, 100 µL/min
# Conditions: column: Zorbax Extend-C18 2.1 x 50 mm; eluents: water / acetonitrile, 0.1% formic acid
# In short: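 The system's dead and dwell volumes were 40 μL and 900 μL, with a Zorbax Extend-C18 column (2.1 × 50 mm, 1.8 μm) run at 100 μL/min in water and acetonitrile containing 0.1% formic acid each. Pure standards were analyzed in mixtures of ~100 molecules by HPLC–quadrupole time-of-flight mass spectrometry in positive and negative ionization mode. Retention time was assigned from computationally picked, manually inspected adduct peaks.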
row,SMILES,RP-LC retention time
1,CCOc1ncccc1C(=O)OCc1cc(-c2ccco2)on1,927 s
2,CC(=O)Nc1ccc(S(=O)(=O)N2CC=C(c3cn(C)c4ncccc34)CC2)cc1,764 s
3,CCN1C(=O)C(CC(=O)NC(C)c2ccccc2)Sc2ncccc21 (centres undefined),751 s
4,COc1cccc(C(=O)Nc2nnc(SC)s2)c1,755 s
5,Cc1cc(S(=O)(=O)Nc2ccc3c(c2)CCC(=O)N3CC(C)C)ccc1F,909 s
6,O=C1NC2(CCN(C(=O)c3ccccc3F)CC2)Nc2c(Cl)cccc21,742 s
7,Cc1ccccc1CNC(=O)C1CCN(S(=O)(=O)c2cc(C(=O)N(C)C)cs2)CC1,762 s
8,OCCN1CCN(CC(O)COc2ccc3c(c2)CCC3)CC1 (centres undefined),553 s
9,Cc1ccc(S(=O)(=O)N2CCCN(c3ccc(=O)n(-c4ccccc4)n3)CC2)c(C)c1,916 s
10,Fc1ccccc1CNc1cc(-n2cccn2)ncn1,838 s
11,O=C(Cc1c[nH]c2ccccc12)Nc1cc(-c2ccsc2)no1,876 s
12,O=C(Nc1cccc(OCc2nnc(-c3ccc(Cl)cc3)o2)c1)c1cnccn1,946 s
13,O=C(c1ccsc1)N1CCN(c2cc(-c3ccc(Cl)cc3)[nH]n2)CC1,809 s
14,CCOc1ccc(-n2nnnc2CNS(=O)(=O)c2cccc(C(F)(F)F)c2)cc1,892 s
15,COc1cccc(Sc2ccc(N3CCC(C(=O)N4CCN(c5ccccn5)CC4)CC3)nn2)c1,616 s
16,O=C(CSCc1ccccc1)NCC#CCN1CCc2ccccc2C1,581 s
17,Cc1cc(NC(=O)c2cc(=O)c3ccccc3o2)n(-c2nc(-c3ccc(F)cc3)cs2)n1,1240 s
18,O=C(c1cccs1)N1CCCc2cc(NS(=O)(=O)c3cc(F)ccc3F)ccc21,832 s
19,COC1CCOC2(CCN(C(=O)c3sccc3C)CC2)C1 (centres undefined),732 s
20,CCOc1ccc2c(n1)CCN(C(=O)NCC(C)C)C2,740 s
21,NC(=O)C1CCN(C(=O)c2c[nH]c3c(C(F)(F)F)cccc3c2=O)CC1,572 s
22,O=C(NCc1cccc(F)c1)N1C[C@@H]2C[C@H](NS(=O)(=O)c3ccccc3)[C@H]1C2,782 s
23,CCCCC(=O)NC1=C(C(=O)OC)SCC1,905 s
24,Cc1nnc(NC(=O)c2csc(Nc3ccc(OC(F)F)cc3)n2)s1,781 s
25,Cc1nnc2c(NC(=O)c3cc(F)ccc3F)cccn12,705 s
26,O=C(Nc1ccccc1)C1CCCN(C(=O)C2Sc3ccccc3NC2=O)C1 (centres undefined),772 s

row,SMILES,RP-LC retention time
1,CC(C)CN1C(=O)c2cccn2CC1CNC(=O)c1cccs1 (centres undefined),715 s
2,O=C(CN1CCN(Cc2ccccc2F)C1=O)NCc1cccc(Cl)c1,831 s
3,Cc1ccc(C(=O)N2CCN(c3ccccn3)CC2)cc1NC(=O)C1=CSCCO1,604 s
4,COC(=O)c1cccc(COC(=O)C2=CN(C)S(=O)(=O)N=C2C)c1,874 s
5,O=C(Nc1cccc([N+](=O)[O-])c1)c1ccc2ccccc2c1O,1240 s
6,CCOC(=O)c1c(C)c(CCC(=O)N2CCN(c3ncccn3)CC2)n(C)c1C,765 s
7,O=C(NCc1ccco1)c1ccc2c(c1)nnn2Cc1ccc(F)cc1,808 s
8,O=C(c1cccnc1)N1CCCCC1c1nncn1-c1ccccc1 (centres undefined),596 s
9,COCCOC1CN(C2CCN(Cc3ccccc3C#N)CC2)C12CCCCC2 (centres undefined),572 s
10,CC(=O)N1CCN(c2nc(-c3ccccc3)c3cc(Br)ccc3n2)CC1,1010 s
11,O=S(=O)(C1CC1)N1CCCCC1c1nncn1CC1CC1 (centres undefined),578 s
12,COCc1cn(C2CN(C(=O)Cc3c[nH]c4ccccc34)C2)nn1,634 s
13,CC(C)(C)C(=O)N1CCN(CC(F)(F)F)CC1,746 s
14,CS(=O)(=O)Nc1ccc(C2(C(=O)NCc3ccco3)CCCCC2)cc1,806 s
15,COc1ccc(-c2nc3ccc(C)cn3c2Nc2ccccc2C)cc1,761 s
16,Cn1c(C#N)ccc1-c1ccc2c(c1)C(C)(C)OC(=S)N2,989 s
17,O=C(c1ccsc1)N1CCN(c2nc(CN3CCCCC3)cs2)CC1,597 s
18,Cc1cccc(C)c1Nc1c(-c2cc(Br)ccc2O)nc2ncccn12,1090 s
19,CCNC(=O)N1CC=C(C(=O)Nc2cccc(F)c2)CC1,673 s
20,O=C(c1cncc(Br)c1)N1CCN(c2ccc(-c3cccs3)nn2)CC1,651 s
21,O=C(CC1CCN(C(=O)Nc2ccc(Br)cc2)CC1)N1CCCCC1,830 s
22,Cc1ccc(NC(=O)c2cn(C)nc2S(=O)(=O)N2CCSCC2)cc1F,981 s
23,O=C(Nc1cc(-c2ccccn2)no1)c1cccc(Br)c1,894 s
24,O=C(CN1C(=O)CSc2ccc(C(=O)N3CCCC3)cc21)N1CCN(c2ncccn2)CC1,661 s
25,O=C(NCc1csc(-c2ccccc2)n1)C1CCN(S(=O)(=O)c2cccs2)CC1,872 s

# The next lines start with the values.
row,RP-LC retention time,SMILES
1,1130 s,O=C1C2N=NN(Cc3nc(-c4cccc(Br)c4)no3)C2C(=O)N1c1ccc2c(c1)CCC2 (centres undefined)
2,999 s,Cc1ccc(-n2nc(N3CCCC(C(=O)Nc4cccc(C)c4C)C3)ccc2=O)cc1Cl (centres undefined)
3,1020 s,O=C(Nc1ccc(SCc2nnc(-c3ccc4c(c3)OCO4)o2)cc1)C1CCCCC1
4,613 s,O=C(NCC1CCCO1)c1ccc(-c2ccc(N3CCCCC3)nc2)cc1 (centres undefined)
5,800 s,CCC(C)NC(=O)Cn1c(=O)n(-c2cc(OC)cc(OC)c2)c(=O)c2ccccc21 (centres undefined)
6,956 s,CC(C)c1noc(-c2cc(=O)n(CC(=O)Nc3ccc4c(c3)OCO4)c3ccccc23)n1
7,753 s,Cc1noc(C)c1CNC(=O)c1ccc2ncccc2c1
8,615 s,Cc1ccc2c(Nc3cc(F)cc(F)c3)c(C(=O)N3CCCC3)cnc2n1
9,671 s,CCNc1cc(N2CCCC(CCC(=O)Nc3ccc(OC)cc3OC)C2)ncn1 (centres undefined)
10,576 s,COc1ccc2[nH]c3c(c2c1)CCNC31CCN(C(=O)C2CCN2C2CCCCC2)CC1 (centres undefined)
11,956 s,CCc1noc(NC(C)=O)c1-c1ccc(C)c(S(=O)(=O)N2CCc3ccccc3C2)c1
12,628 s,CCN1CCN(c2c(S(=O)(=O)c3ccc(OC)cc3)cnc3cc(OC)c(OC)cc23)CC1
13,658 s,CCCCNC(=O)C1CCC(=O)N(c2ccc(OC)cc2)C1c1ccc(OC)c(OC)c1 (centres undefined)
14,884 s,CCCNC(=O)c1cn(-c2ccc(S(=O)(=O)N3CCCC(C)C3)cn2)cn1 (centres undefined)
15,1020 s,N#Cc1cc2c(nc1SCC(=O)Nc1nc(-c3ccccc3)cs1)CCCC2=O
16,617 s,CN(CCCNC(=O)c1ccc2c(c1)NC(=O)C1CCCCN21)Cc1ccccc1 (centres undefined)
17,795 s,C[C@H]1CN(C(=O)Cc2ccccc2F)C[C@@H]1c1nc(-c2cccnc2)no1
18,708 s,O=C1COc2ccc(S(=O)(=O)N3CCC(C(=O)NCc4ccc5c(c4)OCO5)CC3)cc2N1
19,711 s,C[C@H]1CN(C(=O)c2c[nH]c3ccccc23)C[C@@H]1c1nc(-c2cccnc2)no1

row,RP-LC retention time,SMILES
1,676 s,Cc1nc(-c2cccc(NC(=O)c3ccc(N4CCCC4)nn3)c2)cs1
2,878 s,CCCn1c(=O)c(C)nc2cc(-c3noc(C4CC(=O)N(C5CCCC5)C4)n3)ccc21 (centres undefined)
3,917 s,CCC1Oc2ccc(S(=O)(=O)N3CCC(C(=O)N4CCc5ccccc54)CC3)cc2NC1=O (centres undefined)
4,724 s,Cc1cc(C)c(C(=O)N2CCC(CC(=O)NCc3ccc4c(c3)OCO4)CC2)[nH]1
5,946 s,Cc1ccc(N2CC(c3noc(-c4cccs4)n3)CC2=O)cc1 (centres undefined)
6,618 s,O=C(NCCN1CCc2ccccc2C1)c1cn2nc(Cl)ccc2n1
7,782 s,O=C(Nc1ccc2nc3n(c(=O)c2c1)CCCC3)Nc1ccc(Br)cc1F
8,574 s,Cn1c(=O)c(C(=O)NC2CCN(Cc3ccccc3)CC2)nc2cccnc21
9,615 s,CC(=O)N1CCc2ccc(NS(=O)(=O)CCN3C(=O)CCCC3=O)cc21
10,726 s,COCCNC(=O)Cn1nc2cc(C)nc(-c3ccc(C(F)(F)F)cc3)n2c1=O
11,582 s,CCC1(C(=O)NCCCN2CCc3ccccc3C2)CCCCC(=O)N1 (centres undefined)
12,640 s,Cc1cc(C(=O)N2CCOCC2)c2cc(Cl)ccc2n1
13,801 s,CCc1noc(NC(C)=O)c1-c1ccc(OC)c(S(=O)(=O)NC2CCCC2)c1
14,918 s,CCCOc1ccc(CNC(=O)c2nc3cccnc3n(CC)c2=O)cc1
15,1040 s,O=C(c1ccccc1F)N1CCN(c2nc(-c3ccc(Cl)cc3)no2)CC1
16,980 s,CCCn1ccc2sc(C)c(C(=O)NCc3ccccc3Cl)c2c1=O
17,973 s,COc1ccc(C2C(C(=O)N3CCOCC3)=C(C)NC3=C2C(=O)CC(C)(C)C3)c(OC)c1 (centres undefined)
18,958 s,O=C(CCn1nnc2cc(-c3noc(C4(c5ccccc5)CC4)n3)ccc21)N1CCCC1
19,1260 s,CSc1ccc(-c2noc(Cn3ncn4nc(-c5cc(C)ccc5C)cc4c3=O)n2)cc1
